Test results taken from ChEMBL document CHEMBL3885881, “DrugMatrix”.

Organism: Rattus norvegicus
Assay: DrugMatrix - Regimen: Daily Repeat
Assay type: toxicity, organism-based, Sprague-Dawley
Parameters: regimen Daily Repeat, gender Male, age 6-8 weeks
Details: in vivo, po, route oral GAVAGE, vehicle .5 % CMC; for ABSOLUTE BASOPHIL / ABSOLUTE EOSINOPHIL / ABSOLUTE LYMPHOCYTE / ABSOLUTE MONOCYTE / ABSOLUTE SEGMENTED NEUTROPHIL / BASOPHIL / EOSINOPHIL / ERYTHROCYTE COUNT / HEMATOCRIT / HEMOGLOBIN / LEUKOCYTE COUNT / LYMPHOCYTE / MEAN CORPUSCULAR HEMOGLOBIN / MEAN CORPUSCULAR HEMOGLOBIN CONCENTRATION / MEAN CORPUSCULAR VOLUME / MONOCYTE / NEUTROPHIL / NUCLEATED RED BLOOD CELLS / PLATELET COUNT: tissue Blood; for ALANINE AMINOTRANSFERASE / ALBUMIN / ALKALINE PHOSPHATASE / ASPARTATE AMINOTRANSFERASE / BLOOD UREA NITROGEN / CARBON DIOXIDE / CHLORIDE / CHOLESTEROL / CREATINE PHOSPHOKINASE / CREATININE / GLUCOSE / LACTATE DEHYDROGENASE / LIPASE / PHOSPHORUS / POTASSIUM / SODIUM / TOTAL BILIRUBIN / TOTAL PROTEIN / URIC ACID: tissue Plasma
[1] = 1 mg/kg, 120 h, dose level Low, time 5 day
[2] = 1300 mg/kg, 72 h, dose level High, time 3 day
[3] = 1300 mg/kg, 120 h, dose level High, time 5 day

How did the “ABSOLUTE BASOPHIL” value [1] turn out when `CCOc1nc2cccc(C(=O)O)c2n1Cc1ccc(-c2ccccc2-c2nnn[nH]2)cc1` was run?
Its value is 0 CELLS/uL.

What about the “ABSOLUTE EOSINOPHIL” value [1] of the same molecule?
Its value is 0 CELLS/uL.

And the “ABSOLUTE LYMPHOCYTE” value [1]?
Its value is 10713.33 CELLS/uL.

And the “ABSOLUTE MONOCYTE” value [1]?
The value was 81.33 CELLS/uL.

What about the “ABSOLUTE SEGMENTED NEUTROPHIL” value [1] of the same molecule?
Its value is 1172 CELLS/uL.

What about the BASOPHIL [1] of the same molecule?
Its BASOPHIL is 0%.

What about the EOSINOPHIL [1] of the same molecule?
Its EOSINOPHIL is 0%.

What about the “ERYTHROCYTE COUNT” value [1] of the same molecule?
Its value is 5.35 x10E6/uL.

What about the HEMATOCRIT [1] of the same molecule?
The HEMATOCRIT was 34.57%.

And the HEMOGLOBIN [1]?
The HEMOGLOBIN was 13.63 G/DL.

What about the “LEUKOCYTE COUNT” value [1] of the same molecule?
The value was 11.97 x10E3/uL.

What about the LYMPHOCYTE [1] of the same molecule?
The LYMPHOCYTE was 89.67%.

And the “MEAN CORPUSCULAR HEMOGLOBIN” value [1]?
Its value is 25.5 pg.

And the “MEAN CORPUSCULAR HEMOGLOBIN CONCENTRATION” value [1]?
Its value is 39.43 G/DL.

What about the “MEAN CORPUSCULAR VOLUME” value [1] of the same molecule?
Its value is 64.67 fL.

What about the MONOCYTE [1] of the same molecule?
Its MONOCYTE is 0.67%.

And the NEUTROPHIL [1]?
Its NEUTROPHIL is 9.67%.

And the “NUCLEATED RED BLOOD CELLS” value [1]?
Its value is 0 /100WBC.

What about the “PLATELET COUNT” value [1] of the same molecule?
Its value is 1267.33 x10E3/uL.

And the “ALANINE AMINOTRANSFERASE” value [1]?
Its value is 54 u/L.

And the ALBUMIN [1]?
The ALBUMIN was 4.1 G/DL.

What about the “ALKALINE PHOSPHATASE” value [1] of the same molecule?
The value was 389.33 u/L.

And the “ASPARTATE AMINOTRANSFERASE” value [1]?
The value was 76.67 u/L.

And the “BLOOD UREA NITROGEN” value [1]?
Its value is 18.33 mg/dL.

And the “CARBON DIOXIDE” value [1]?
The value was 27 mmol/L.

And the CHLORIDE [1]?
Its CHLORIDE is 104.33 MEQ/L.

And the CHOLESTEROL [1]?
Its CHOLESTEROL is 70.33 mg/dL.

What about the “CREATINE PHOSPHOKINASE” value [1] of the same molecule?
Its value is 187.67 u/L.

What about the CREATININE [1] of the same molecule?
The CREATININE was 0.19 mg/dL.

What about the GLUCOSE [1] of the same molecule?
The GLUCOSE was 161.33 mg/dL.

And the “LACTATE DEHYDROGENASE” value [1]?
The value was 120.67 u/L.

And the LIPASE [1]?
The LIPASE was 10.67 u/L.

And the PHOSPHORUS [1]?
Its PHOSPHORUS is 12.2 mg/dL.

What about the POTASSIUM [1] of the same molecule?
The POTASSIUM was 5.83 MEQ/L.

What about the SODIUM [1] of the same molecule?
Its SODIUM is 144.5 MEQ/L.

What about the “TOTAL BILIRUBIN” value [1] of the same molecule?
Its value is 0.2 mg/dL.

What about the “TOTAL PROTEIN” value [1] of the same molecule?
Its value is 5.97 G/DL.

What about the “URIC ACID” value [1] of the same molecule?
The value was 1.6 mg/dL.

And the “ABSOLUTE BASOPHIL” value [2]?
The value was 0 CELLS/uL.

And the “ABSOLUTE EOSINOPHIL” value [2]?
The value was 27.67 CELLS/uL.

And the “ABSOLUTE LYMPHOCYTE” value [2]?
Its value is 7595.67 CELLS/uL.

And the “ABSOLUTE MONOCYTE” value [2]?
The value was 24.33 CELLS/uL.

And the “ABSOLUTE SEGMENTED NEUTROPHIL” value [2]?
Its value is 519 CELLS/uL.

What about the BASOPHIL [2] of the same molecule?
The BASOPHIL was 0%.

And the EOSINOPHIL [2]?
The EOSINOPHIL was 0.33%.

What about the “ERYTHROCYTE COUNT” value [2] of the same molecule?
Its value is 5.08 x10E6/uL.

And the HEMATOCRIT [2]?
The HEMATOCRIT was 32.2%.

And the HEMOGLOBIN [2]?
The HEMOGLOBIN was 13.13 G/DL.

What about the “LEUKOCYTE COUNT” value [2] of the same molecule?
The value was 8.17 x10E3/uL.

What about the LYMPHOCYTE [2] of the same molecule?
The LYMPHOCYTE was 93%.

And the “MEAN CORPUSCULAR HEMOGLOBIN” value [2]?
The value was 25.87 pg.

And the “MEAN CORPUSCULAR HEMOGLOBIN CONCENTRATION” value [2]?
The value was 40.8 G/DL.

What about the “MEAN CORPUSCULAR VOLUME” value [2] of the same molecule?
The value was 63.43 fL.

And the MONOCYTE [2]?
The MONOCYTE was 0.33%.

And the NEUTROPHIL [2]?
The NEUTROPHIL was 6.33%.

What about the “NUCLEATED RED BLOOD CELLS” value [2] of the same molecule?
Its value is 0 /100WBC.

What about the “PLATELET COUNT” value [2] of the same molecule?
Its value is 1033.67 x10E3/uL.

What about the “ALANINE AMINOTRANSFERASE” value [2] of the same molecule?
Its value is 54 u/L.

And the ALBUMIN [2]?
The ALBUMIN was 4.33 G/DL.

And the “ALKALINE PHOSPHATASE” value [2]?
Its value is 351.67 u/L.

And the “ASPARTATE AMINOTRANSFERASE” value [2]?
The value was 93 u/L.

What about the “BLOOD UREA NITROGEN” value [2] of the same molecule?
Its value is 27.33 mg/dL.

What about the “CARBON DIOXIDE” value [2] of the same molecule?
Its value is 32 mmol/L.

And the CHLORIDE [2]?
Its CHLORIDE is 102 MEQ/L.

What about the CHOLESTEROL [2] of the same molecule?
The CHOLESTEROL was 73 mg/dL.

What about the “CREATINE PHOSPHOKINASE” value [2] of the same molecule?
The value was 813.67 u/L.

What about the CREATININE [2] of the same molecule?
The CREATININE was 0.48 mg/dL.

And the GLUCOSE [2]?
Its GLUCOSE is 143 mg/dL.

What about the “LACTATE DEHYDROGENASE” value [2] of the same molecule?
The value was 189.33 u/L.

And the LIPASE [2]?
Its LIPASE is 10.33 u/L.

What about the PHOSPHORUS [2] of the same molecule?
The PHOSPHORUS was 12.17 mg/dL.

And the POTASSIUM [2]?
Its POTASSIUM is 7.02 MEQ/L.

What about the SODIUM [2] of the same molecule?
The SODIUM was 143.6 MEQ/L.

What about the “TOTAL BILIRUBIN” value [2] of the same molecule?
Its value is 0.23 mg/dL.

And the “TOTAL PROTEIN” value [2]?
Its value is 5.93 G/DL.

And the “URIC ACID” value [2]?
The value was 0.93 mg/dL.

What about the “ABSOLUTE BASOPHIL” value [3] of the same molecule?
Its value is 0 CELLS/uL.

What about the “ABSOLUTE EOSINOPHIL” value [3] of the same molecule?
The value was 140.67 CELLS/uL.

And the “ABSOLUTE LYMPHOCYTE” value [3]?
The value was 14776.67 CELLS/uL.

What about the “ABSOLUTE MONOCYTE” value [3] of the same molecule?
The value was 166.33 CELLS/uL.

What about the “ABSOLUTE SEGMENTED NEUTROPHIL” value [3] of the same molecule?
Its value is 1516.33 CELLS/uL.

What about the BASOPHIL [3] of the same molecule?
Its BASOPHIL is 0%.

And the EOSINOPHIL [3]?
Its EOSINOPHIL is 0.67%.

And the “ERYTHROCYTE COUNT” value [3]?
Its value is 5.54 x10E6/uL.

What about the HEMATOCRIT [3] of the same molecule?
The HEMATOCRIT was 34.57%.

What about the HEMOGLOBIN [3] of the same molecule?
Its HEMOGLOBIN is 13.97 G/DL.

And the “LEUKOCYTE COUNT” value [3]?
Its value is 16.6 x10E3/uL.

And the LYMPHOCYTE [3]?
The LYMPHOCYTE was 89.33%.

What about the “MEAN CORPUSCULAR HEMOGLOBIN” value [3] of the same molecule?
The value was 25.23 pg.

And the “MEAN CORPUSCULAR HEMOGLOBIN CONCENTRATION” value [3]?
Its value is 40.43 G/DL.

And the “MEAN CORPUSCULAR VOLUME” value [3]?
The value was 62.43 fL.

What about the MONOCYTE [3] of the same molecule?
Its MONOCYTE is 1%.

What about the NEUTROPHIL [3] of the same molecule?
The NEUTROPHIL was 9%.

And the “NUCLEATED RED BLOOD CELLS” value [3]?
Its value is 0 /100WBC.

What about the “PLATELET COUNT” value [3] of the same molecule?
The value was 1315 x10E3/uL.

And the “ALANINE AMINOTRANSFERASE” value [3]?
Its value is 42.33 u/L.

What about the ALBUMIN [3] of the same molecule?
Its ALBUMIN is 4.33 G/DL.

What about the “ALKALINE PHOSPHATASE” value [3] of the same molecule?
Its value is 320.67 u/L.

What about the “ASPARTATE AMINOTRANSFERASE” value [3] of the same molecule?
Its value is 108 u/L.

And the “BLOOD UREA NITROGEN” value [3]?
Its value is 32.33 mg/dL.

What about the “CARBON DIOXIDE” value [3] of the same molecule?
The value was 24.67 mmol/L.

What about the CHLORIDE [3] of the same molecule?
The CHLORIDE was 105 MEQ/L.

And the CHOLESTEROL [3]?
The CHOLESTEROL was 61.67 mg/dL.

What about the “CREATINE PHOSPHOKINASE” value [3] of the same molecule?
The value was 994.33 u/L.

What about the CREATININE [3] of the same molecule?
The CREATININE was 0.19 mg/dL.

And the GLUCOSE [3]?
Its GLUCOSE is 134 mg/dL.

What about the “LACTATE DEHYDROGENASE” value [3] of the same molecule?
The value was 1053.67 u/L.

And the LIPASE [3]?
The LIPASE was 10 u/L.

What about the PHOSPHORUS [3] of the same molecule?
The PHOSPHORUS was 11.2 mg/dL.

And the POTASSIUM [3]?
The POTASSIUM was 6.2 MEQ/L.

What about the SODIUM [3] of the same molecule?
Its SODIUM is 143.9 MEQ/L.

And the “TOTAL BILIRUBIN” value [3]?
The value was 0.2 mg/dL.

What about the “TOTAL PROTEIN” value [3] of the same molecule?
Its value is 6.2 G/DL.

What about the “URIC ACID” value [3] of the same molecule?
The value was 1.13 mg/dL.
